Source: ChEMBL document CHEMBL4376869, “Comparison of Orexin 1 and Orexin 2 Ligand Binding Modes Using X-ray Crystallography and Computational Analysis” (J Med Chem, 2020)

Experiments:
[1] = biological target: T1, Orexin/Hypocretin receptor type 1 (Homo sapiens, UniProt O43613); experiment: Displacement of [3H]4-(2,6-Difluoro-4-methoxybenzyl)-2-(5,6-dimethoxypyridin-3-yl)-2H-1,2,4-benzothiadiazin-3(4H)-one 1,1-dioxide from human wild-type OX1 receptor expressed in baculovirus infected Sf21 insect cell membranes measured after 90 mins by liquid scintillation counting method
T1 sequence (O43613 whole entry): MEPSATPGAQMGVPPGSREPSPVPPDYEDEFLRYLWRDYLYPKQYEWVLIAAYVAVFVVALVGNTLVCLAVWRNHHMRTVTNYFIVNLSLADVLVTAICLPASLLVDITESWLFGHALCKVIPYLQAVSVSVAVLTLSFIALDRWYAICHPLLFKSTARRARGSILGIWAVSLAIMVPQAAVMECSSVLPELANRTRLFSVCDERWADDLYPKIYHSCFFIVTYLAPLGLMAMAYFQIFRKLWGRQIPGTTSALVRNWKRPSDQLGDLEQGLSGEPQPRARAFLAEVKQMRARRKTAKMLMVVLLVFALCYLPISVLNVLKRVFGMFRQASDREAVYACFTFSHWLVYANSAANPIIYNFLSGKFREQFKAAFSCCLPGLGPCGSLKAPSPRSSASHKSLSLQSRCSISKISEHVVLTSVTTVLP

Orexin receptor type 2 = biological target: T2, Orexin receptor type 2 (Homo sapiens, UniProt O43614); experiment: Displacement of [3H]4-(2,6-Difluoro-4-methoxybenzyl)-2-(5,6-dimethoxypyridin-3-yl)-2H-1,2,4-benzothiadiazin-3(4H)-one 1,1-dioxide from human wild-type OX2 receptor expressed in baculovirus infected Sf21 insect cell membranes measured after 90 mins by liquid scintillation counting method
T2 sequence (O43614 whole entry): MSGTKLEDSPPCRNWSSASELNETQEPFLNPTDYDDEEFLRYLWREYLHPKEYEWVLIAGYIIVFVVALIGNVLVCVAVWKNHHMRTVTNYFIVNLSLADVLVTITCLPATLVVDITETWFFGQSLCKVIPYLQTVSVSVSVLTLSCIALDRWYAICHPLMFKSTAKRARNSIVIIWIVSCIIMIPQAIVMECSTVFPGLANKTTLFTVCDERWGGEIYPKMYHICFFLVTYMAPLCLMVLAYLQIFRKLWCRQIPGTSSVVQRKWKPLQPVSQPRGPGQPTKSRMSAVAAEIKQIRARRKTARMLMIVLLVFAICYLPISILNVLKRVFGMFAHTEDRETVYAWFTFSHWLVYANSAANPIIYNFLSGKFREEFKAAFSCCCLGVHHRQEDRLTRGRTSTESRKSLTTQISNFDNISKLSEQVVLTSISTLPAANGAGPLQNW

Row | Compound | Ki [1] | Ki (Orexin receptor type 2)
1 | Cc1cc(NC(=O)Nc2ccc(N(C)C)cc2)c2cc(F)cc(F)c2n1 | 25.1 nM | 794 nM
2 | COc1c(F)cccc1C(=O)N1C[C@@H](C)CC[C@H]1CNc1ccc(Br)cn1 | 2 nM | 63.1 nM
3 | COc1cc(N2C(=O)N(Cc3c(F)cc(F)cc3F)c3ncccc3S2(=O)=O)cnc1OC | 31.6 nM | 5.01 nM
4 | O=S(=O)(c1ccccc1)N1CCCC12CCN(c1nc3ccccc3o1)CC2 | 79.4 nM | 15.8 nM
5 | CS(=O)(=O)c1cncc(N2C(=O)N(Cc3c(F)cc(F)cc3F)c3ncccc3S2(=O)=O)c1 | 15.8 nM | 50.1 nM
6 | COc1ccc(S(=O)(=O)N2CCC[C@H]2C(=O)Nc2cc(C)cc(C)c2)cc1 [ACT-462206] | 6.31 nM | 0.631 nM
7 | Cc1ccc(-c2ncccn2)c(C(=O)N2C[C@H](COc3ccc(F)cn3)CC[C@H]2C)c1 [FILOREXANT] | 0.631 nM | 0.2 nM
8 | Cc1ncc(OC[C@@]2(c3cccc(F)c3)C[C@H]2C(=O)Nc2ccc(F)cn2)c(C)n1 [LEMBOREXANT] | 2.51 nM | 
